Earlier results on 24 compounds are cited in patent publication US20250268950A1, “PRENATAL SUPPLEMENT” (Arizona Board of Regents on Behalf of Arizona State …, priority 2021, published 2025).

Like-named read-outs stand apart in the source and are kept apart here.

The conditions of data set [1]: for blood niacin lower than healthy non-pregnant controls: 20 mg/day, 563 US women.
For data set [2] the following is noted: Table 12.
Where [3] appears, read: meta-analysis of seven RCTs, women with gestational diabetes.
Where [4] appears, read: Cochrane, ≥1 g/day, 13 studies, 15,730 women.
Where [5] appears, read: meta-analysis of 27 trials, 28,492 women.
Setting [6] is: meta-analysis of 7 studies, 5-10 mg, usually repeated, imminent very preterm birth.
[7] abbreviates: one or more maternal doses of 10 mg.

Regarding `[Zn]` [Zinc], in the data set on infants (30 mg/day), the “reduction in chance of infant impetigo” value is 54%. The “preterm birth, RR” value with infants (meta-analysis of 16 randomized, controlled trials, mostly 20-30 mg) was 0.86.

Turning to `Cc1ncc(C[n+]2csc(CCO)c2C)c(N)n1` [Thiamine], the “effect on glucose tolerance and intra-uterine growth” value in the data set on pregnant women (supplementation in pregnant women) was “improves their glucose tolerance, and stimulates intra-uterine growth”. The “thiamine levels lower than non-pregnant women” value in data set [1] (multi-vitamin containing 3 mg, 563 pregnant women) is “approximately 31%”.

calcium pantothenate: the “blood levels of pantothenic acid” value in data set [1] (10 mg/day) was “slightly higher blood levels of pantothenic acid compared to non-pregnant controls”. Also, the “bound pantothenic acid as % of levels in controls” value in data set [1] (60 mg from 4.5 months gestation, at 7.5 months) is reported as 59%; in data set [1] (60 mg from 4.5 months gestation, at term), 104%. Further, the “free pantothenic acid vs controls, fold higher” value in data set [1] (60 mg from 4.5 months gestation, at 7.5 months and at term) is on record as 2.

For `CC1=C(/C=C/C(C)=C/C=C/C(C)=C/C=C/C=C(C)/C=C/C=C(C)/C=C/C2=C(C)CCCC2(C)C)C(C)(C)CCC1` [beta-carotene], the “benefit on night blindness compared with vitamin A” value in the data set with pregnant women (Nepal) is “about half as much benefit”. Moreover, the “risk of anemia, RR” value with pregnant women (meta-analysis of 8 studies, supplementation) is reported as 0.81.

As to Cobalamin [Vitamin B12], the “levels lower at end of pregnancy vs healthy non-pregnant controls” value in data set [1] (12 mcg/day, US) is 38%. Also, the “maternal and infant B12 levels” value in data set [1] (50 mcg/day during pregnancy and early lactation, India) is “significant increases in maternal B12 levels in blood and breastmilk, and infant levels of B12”. The “vitamin B12 levels during pregnancy” value in data set [1] (approximately 3× the RDA (diet 6 mcg + supplements 2.6 mcg), 26 women) is listed as “enough to stabilize vitamin B12 levels during pregnancy”. For the same compound, the “decrease in serum B12 by third trimester vs first” value in data set [1] (total consumption of 2× the RDA) is reported as 30%.

Turning to `[Se]` [Selenium], the “reduction of odds of preeclampsia or PIH” value in the data set with pregnant women (60 i.g/day, 230 women in the UK) is recorded as 65%. Moreover, in the data set on pregnant women (100 i.g during last 6-8 weeks, women at risk (vs. 23%)), the pregnancy-induced hypertension is 8%. In the data set with pregnant women (100 i.g during last 6-8 weeks, women at risk (vs. 33%)), the gestational edema is given as 15%. Further, the postpartum depression result in the data set with pregnant women (100 i.g/day) is “treat postpartum depression”. Further, the “existing gestational edema cured” value with pregnant women (100 i.g, 26 cases (1 out of 13 with placebo)) is given as 88%. In the data set with pregnant women (200 i.g/day for 6 weeks, 70 women with gestational diabetes), the “glucose, insulin, CRP, oxidative stress” value was “significant improvements in fasting glucose, serum insulin, C-reactive protein, and oxidative stress”. The “rate of permanent hypothyroidism” value in the data set with pregnant women (200 i.g/day, women at high risk (vs. 20%)) is reported as 12%. Besides, the “rate of postpartum thyroid deficiency” value with pregnant women (200 i.g/day, women at high risk (vs. 49%)) was 29%.

As for `CC/C=C\C/C=C\C/C=C\C/C=C\C/C=C\C/C=C\CCC(=O)O` [DHA, Docosahexaenoic acid], the “increase of RBC DHA” value is 7% in data set [1] (300 mg/day (controls decreased 10%)) and 21% in data set [1] (600 g/day group (so in the source)).

Regarding `O=C(O)CCCC[C@@H]1SC[C@@H]2NC(=O)N[C@@H]21` [Biotin], in data set [1] (30 mcg/day supplemental), the biotin levels result is on record as “sufficient to slightly increase levels of biotin above that of healthy controls”. Moreover, in data set [1] (300 mcg/day for two weeks), the “treatment of biotin deficiency” value was “sufficient to treat the deficiency”.

In the case of `Nc1nc2ncc(CNc3ccc(C(=O)N[C@@H](CCC(=O)O)C(=O)O)cc3)nc2c(=O)[nH]1` [folic acid], the “risk of ASD in the child, RR” value in the data set on infants (meta-analysis of 6 prospective studies, maternal supplementation) is reported as 0.64. In addition, in the data set on infants (meta-analysis, multi-vitamin supplement containing folic acid), the “NTDs, OR” value is 0.67. For the same compound, the “prevalence of gestational diabetes” value in the data set on pregnant women (women with PCOS, folic acid only 1.5 mg) was 54%. In addition, the “average blood folate level” value in data set [1] (1000 mcg/day, each trimester, 563 US women (10 ng/ml in controls)) is 25 to 26 ng/mL.

`CC(O)C(=O)[O-].CC(O)C(=O)[O-].[Zn+2]` (stereo not drawn) [zinc lactate]: the “low birth weight, preterm birth, intrauterine growth retardation” value with infants (30 mg/day) is “great improvements in the incidence of low birth weight, preterm birth, and intrauterine growth retardation”. In addition, the benefit result in the data set with infants (doses of 5 and 10 mg) is “no benefit”. Moreover, the serum zinc entry in data set [1] (30 mg) is on record as “enough to slightly increase zinc levels”.

Turning to omega-3 fatty acids, in the data set with infants (meta-analysis of 70 RCTs), the “neonatal care admissions, RR (possibly fewer)” value is 0.92 and the “perinatal death, RR (possibly reduced)” value is listed as 0.75. In the data set with infants (setting [3]), the “macrosomia, RR (possible)” value is on record as 0.48 and the “newborns' hyperbilirubinemia, RR (possible)” value is recorded as 0.46. Also, the “prolonged gestation (>42 weeks), RR” value in the data set with infants (meta-analysis, 6 RCTs, 5141 participants) is recorded as 1.61. In the data set on infants (meta-analysis, 9 RCTs, 5204 participants), the “early preterm birth (<34 weeks), RR” value was 0.58. In addition, in the data set on infants (meta-analysis, 15 trials, 8449 participants), the “low birth weight, RR” value is reported as 0.90. Moreover, the “preterm birth (<37 weeks), RR” value in the data set with infants (meta-analysis, 26 RCTs, 10,304 participants) was 0.89. Moreover, the “mean increase in length of gestation” value with infants (meta-analysis, 41 trials, 12,517 participants) is on record as 1.67 days. Moreover, the “risk of preeclampsia, RR” value with pregnant women (meta-analysis of 14 supplementation studies) is 0.82. The “preeclampsia, RR (possibly reduced)” value in the data set with pregnant women (meta-analysis of 70 RCTs) is listed as 0.84. Further, the “reduction of depression, SMD” value in the data set on pregnant women (meta-analysis of eight studies, 638 women with perinatal depression, 1-6 g/day) was 0.65. Moreover, the “prevention of perinatal depression” value in the data set on pregnant women (meta-analysis of prophylactic supplementation studies) is “did not demonstrate a significant benefit”. Besides, in the data set with pregnant women (setting [3]), the “HOMA-IR, std. MD” value is listed as −0.52; the “fasting plasma glucose, std. MD” value was −0.56; the “high-sensitivity CRP, std. MD” value is on record as −1.14.

For `C[N+](C)(C)CCO` [Choline], the “Tolerable Upper Limit for Pregnant Women” value in data set [2] is on record as 3500 mg/day. Further, in the data set with pregnant women (900 mg/day of choline (as phosphatidylcholine)), the safety result is reported as “safe”.

Consider magnesium gluconate, for which the “rate of pregnancy-induced hypertension” value with pregnant women (184 mg/day) is on record as “substantially reduced the rate of pregnancy-induced hypertension”.

Take `CC1=C(C/C=C(\C)CCC[C@H](C)CCC[C@H](C)CCCC(C)C)C(=O)c2ccccc2C1=O` [phylloquinone]: the “infant plasma vitamin K as % of formula-fed infants” value in data set [1] (lactating mothers 5 mg/day, infants 1 mg intramuscularly at birth) was 50%.

With `O=S(=O)([O-])[O-].[Zn+2]` [zinc sulfate], the “infant birth weight and head circumference” value with infants (25 mg/day, women with relatively low plasma zinc) was “greater infant birth weights and head circumferences”. For the same compound, in data set [1] (20 mg, 138 Hispanic teenagers (14% non-supplemented)), the “decrease of serum zinc, week 17 to week 31-36” value is listed as 8%. Besides, the “decrease of plasma zinc from beginning to end of pregnancy” value in data set [1] (25 mg/day, U.S. women with low initial plasma zinc (11% un-supplemented)) is recorded as 7%. In data set [1] (averaging 11 mg/day, U.S.), the zinc levels result is “little effect on plasma levels but did increase hair and possibly saliva levels”.

For `O=C(O)c1cccnc1` [Niacin], the “blood niacin lower than healthy non-pregnant controls” value is listed as 29% in data set [1] (first trimester), 35% in data set [1] (second trimester) and 38% in data set [1] (third trimester).

In the case of `C[Se]CC[C@H](N)C(=O)O` [selenome-thionine, selenomethionine], in the data set with pregnant women (100 i.g/day, randomized trial of 169 women), the “preeclampsia or preterm birth vs placebo” value is given as “no significant differences were seen for either preeclampsia or preterm birth”.

With `Cc1cc2nc3c(=O)[nH]c(=O)nc-3n(C[C@H](O)[C@H](O)[C@H](O)CO)c2cc1C` [Riboflavin], the “cases of severe preeclampsia” value with pregnant women (15 mg/day, Venezuela) is “significant decrease in the number of cases of severe preeclampsia”.

`[Ca]` [Calcium]: in the data set on infants (Cochrane, ≥1 g/day), the “preterm birth, RR” value is listed as 0.76. Moreover, the “risk of ASD, OR” value with infants (retrospective study in China) is given as 0.48. The “incidence of pregnancy-induced hypertension” value with pregnant women (120 mg (18% in control group)) is listed as 8.9%; with pregnant women (240 mg (18% in control group)) it was 7.5%; in the data set with pregnant women (1000 mg (18% in control group)), 8%; in the data set with pregnant women (2000 mg (18% in control group)), 4%. Further, the “cases of HELLP” value with pregnant women (1500-2000 mg/day, two trials, 12,901 women (vs. 6 un-supplemented)) is given as 16. Besides, the “risk of preeclampsia, RR” value is on record as 0.38 in the data set on pregnant women (Cochrane, low-dose <1 g/day, 10 trials, 2234 women); 0.45 with pregnant women (setting [4]); 0.51 in the data set on pregnant women (setting [5]). Also, the “maternal death or serious morbidity, RR” value with pregnant women (Cochrane, ≥1 g/day) was 0.80. Moreover, in the data set on pregnant women (setting [4]), the “risk of high blood pressure, RR” value is on record as 0.65. The “rate of proteinuric PIH” value with pregnant women (Hong Kong, 600 mg weeks 22-32, 1200 mg/day to birth (vs. 10.7% placebo)) is 5.6%. In the data set with pregnant women (Hong Kong, 600 mg weeks 22-32, 1200 mg/day to birth (vs. 24% placebo)), the “rate of non-proteinuric PIH” value is recorded as 15%. Moreover, the “reducing risk of preeclampsia, PIH, and hypertension” value in the data set on pregnant women (Trinidad, 510 women, 1200 mg) is “much more effective than 600 mg of calcium plus aspirin”. Further, the “gestational hypertension, RR” value in the data set with pregnant women (setting [5]) is reported as 0.70.

As for Vitamin K, the “risk of childhood cancer” value in the data set with infants (meta-analysis of 6 studies, infantile supplementation) is listed as “no risk of childhood cancer”. Also, in the data set with infants (setting [6]), the “brain bleeding, RR (non-significant)” value is 0.76 and the “severe brain bleeding, RR” value was 0.58. Further, in data set [1] (setting [7]), the “vitamin K level in the infant vs un-supplemented controls, times higher” value is on record as 2 and the “vitamin K level in the mother vs un-supplemented controls, times higher” value was 100. Further, in data set [1] (pregnant women with previous bariatric surgery, 10 mg per week), the “vitamin K level” value is listed as “normal or above-normal level of vitamin K”.

As to `O=S(=O)([O-])[O-].[Mg+2]` [magnesium sulfate, reference compound], the “reduction of risk of cerebral palsy” value in the data set on infants (4-6 g intravenously, mothers at high risk of preterm birth, meta-analysis of five studies) is recorded as “approximately 32%”. The maternal complications entry in the data set on pregnant women (4-6 g intravenously) was “no major complications”.

`[Fe]` [Iron]: in the data set with pregnant women (60 mg 3×/day (180 mg total), 12 participants with IDA), the “subjects in whom iron deficiency anemia was reduced” value is 75%. Further, the “reduction of iron-deficiency anemia at term” value in the data set with pregnant women (meta-analysis, 6 trials, 1088 women) is 67%. For the same compound, in the data set with pregnant women (meta-analysis, 7 trials, 1256 women), the “reduction of iron deficiency at term” value is on record as 57%. In addition, in the data set on pregnant women (meta-analysis, 14 trials, 2199 women, mostly 30-200 mg/day), the “reduction of maternal anemia at term” value is 70%. The megaloblastic anemia with pregnant women (only iron (11% unsupplemented)) is reported as 6%.

For `CC(=O)[O-].CC(=O)[O-].[Zn+2]` [zinc acetate], the “benefit of zinc form” value in the data set with infants (two studies) is listed as “not beneficial”.

As to `Nc1nc2ncc(CNc3ccc(C(=O)N[C@@H](CCC(=O)O)C(=O)O)cc3)nc2c(=O)[nH]1` [Folate], the “serum folate levels at postpartum” value in data set [1] (355 mcg plus iron supplement, Scotland) is on record as “sufficient to maintain median serum folate levels at postpartum that were equivalent to that of healthy non-pregnant women”.
